# Laboratory results published in US4640922A, “3N-substituted 3,4-dihydropyrimidines as agents for treating disorders of cardiovascular system” (Suntory Limited, priority 1984, dated 1987).
# Like-named read-outs stand apart in the source and are kept apart here.
# Legend:
# [1] = system: coronary artery (isolated heart); test: Coronary vascular dilative effect, isolated perfused guinea pig heart, Langendorff's method (perfusion pressure); settings: for Pharmacological data ED50: 0.1 ml injected into coronary artery, isolated guinea pig heart, 37° C., 6 ml/minute; for coronary vascular dilative effects (in words): Langendorff's method, guinea pig heart
# Experimental: The coronary vascular dilative effect of 3N-substituted 3,4-dihydropryrimidine derivatives was tested.
# Heartly guinea pigs (weight 400-500 g) were clubbed dead and their hearts were immediately isolated. The hearts were perfused with Krebs-Henseleit solution bubbled with a mixture of 95% O2 +5% CO2 and maintained at 37° C. at a certain rate of 6 ml/minute according to Langendorff's method [J. Pharmacol. Methods 2, 143 (1979)]. The perfusion pressure was determined by a pressure transducer. Samples were prepared by dissolving 1 mg of a test compound in 1 ml of a mixture of dimethylsulfoxide and physiological saline (1:9) and diluting with physiological saline the solution to the predetermined concentration. 0.1 ml of the diluted solution was administered into the coronary artery via a rubber tube connected to an aorta cannula to obtain ED50 (μg/heart) data as shown in Table 1. The numbers of the compounds in the Table correspond respectively to those of the working examples described above.
# [2] = system: systemic blood pressure; test: Systemic blood pressure (average pressure) in anesthetized dogs; format: in vivo, dog; settings: Canis lupus familiaris, iv, read-out: Average blood pressure, percentage compared with control
# Experimental: (§1) The pharmacological effects of the compounds of the present invention with respect to the blood flow and blood vessel resistance of vertebral artery and systemic blood pressure (average pressure) in anesthetized dogs. […] The first and second ribs were cut open to expose the left vertebral artery. A probe was attached to the origin of the artery and the blood flow was measured with an electromagnetic rheometer (Model MF-27, product of Nihon Koden K.K.) At the same time, continuous measurement of the following parameters was made: systemic blood pressure (average pressure) at the right femoral artery, the ECG in the second induction period, the heart beat with a tachometer driven by the R wave, and the blood vessel resistance determined by loading a multiplication/division unit (EO-601 G, product of Nihon Koden K.K.) with the average values of blood pressure and blood flow in the vertebral artery. All of these parameters were recorded simultaneously on a polygraph (RM-600, product of Nihon Koden, K.K.) All of the test compounds were injected through a cannula inserted into the femoral […].
# [3] = system: vertebral artery; test: Blood flow and blood vessel resistance of vertebral artery in anesthetized dogs; format: in vivo, dog; settings: Canis lupus familiaris, iv
# Experimental: as §1
# [4] = 0.001 mg/kg, % of value before administration, average ± standard error
# [5] = % of value before administration, average ± standard error
# [6] = 0.1 mg/kg, % of value before administration, average ± standard error
# [7] = 0.001 mg/kg, % of value before administration, average ± standard error, read-out: Vertebral artery blood flow, percentage compared with control
# [8] = 0.001 mg/kg, % of value before administration, average ± standard error, read-out: Vertebral artery vessel resistance, percentage compared with control
# [9] = % of value before administration, average ± standard error, read-out: Vertebral artery blood flow, percentage compared with control
# [10] = % of value before administration, average ± standard error, read-out: Vertebral artery vessel resistance, percentage compared with control
# [11] = 0.1 mg/kg, % of value before administration, average ± standard error, read-out: Vertebral artery blood flow, percentage compared with control
# [12] = 0.1 mg/kg, % of value before administration, average ± standard error, read-out: Vertebral artery vessel resistance, percentage compared with control
# [13] = 0.0003 mg/kg, % of value before administration, average ± standard error, read-out: Vertebral artery vessel resistance, percentage compared with control
# [14] = read-out: Vertebral artery blood flow, percentage compared with control
# [15] = read-out: Vertebral artery vessel resistance, percentage compared with control
compound,measurement,setting,value
CCOC(=O)N1C(C)=NC(Cl)=C(C(=O)OC)C1c1cccc([N+](=O)[O-])c1 (stereo not drawn) [Compound 16],Pharmacological data ED50,[1],10.0 μg/heart
CCOC(=O)N1C(C)=NC(C)=C(C(=O)OC)C1c1cccc([N+](=O)[O-])c1 (stereo not drawn) [Compound 14],Pharmacological data ED50,[1],1.1 μg/heart
CCOC(=O)C1=C(C)N=C(C)N(C(=O)OCC)C1c1ccccc1Cl (stereo not drawn) [Compound 22],Pharmacological data ED50,[1],0.086 μg/heart
same,coronary vascular dilative effects (in words),[1],extremely strong coronary vascular dilative effects
same,response vs control in vivo at 0.001 mg/kg,[2]; [4],94%
same,response vs control in vivo at 0.003 mg/kg,[2]; [5],89%
same,response vs control in vivo at 0.01 mg/kg,[2]; [5],82%
same,response vs control in vivo at 0.03 mg/kg,[2]; [5],85%
same,response vs control in vivo at 0.1 mg/kg,[2]; [6],79%
same,response vs control in vivo at 0.001 mg/kg,[3]; [7],105%
same,response vs control in vivo at 0.001 mg/kg,[3]; [8],96%
same,response vs control in vivo at 0.003 mg/kg,[3]; [9],119%
same,response vs control in vivo at 0.003 mg/kg,[3]; [10],80%
same,response vs control in vivo at 0.01 mg/kg,[3]; [9],136%
same,response vs control in vivo at 0.01 mg/kg,[3]; [10],65%
same,response vs control in vivo at 0.03 mg/kg,[3]; [9],188%
same,response vs control in vivo at 0.03 mg/kg,[3]; [10],49%
same,response vs control in vivo at 0.1 mg/kg,[3]; [11],229%
same,response vs control in vivo at 0.1 mg/kg,[3]; [12],39%
CCOC(=O)C1=C(C)N=C(C)N(C(=O)OCC)C1c1ccccc1Br (stereo not drawn) [Compound 8],Pharmacological data ED50,[1],0.033 μg/heart
same,coronary vascular dilative effects (in words),[1],extremely strong coronary vascular dilative effects
same,response vs control in vivo at 0.001 mg/kg,[2]; [4],93%
same,response vs control in vivo at 0.003 mg/kg,[2]; [5],87%
same,response vs control in vivo at 0.01 mg/kg,[2]; [5],81%
same,response vs control in vivo at 0.03 mg/kg,[2]; [5],83%
same,response vs control in vivo at 0.1 mg/kg,[2]; [6],79%
same,response vs control in vivo at 0.001 mg/kg,[3]; [7],110%
same,response vs control in vivo at 0.001 mg/kg,[3]; [8],89%
same,response vs control in vivo at 0.003 mg/kg,[3]; [9],117%
same,response vs control in vivo at 0.003 mg/kg,[3]; [10],81%
same,response vs control in vivo at 0.01 mg/kg,[3]; [9],140%
same,response vs control in vivo at 0.01 mg/kg,[3]; [10],64%
same,response vs control in vivo at 0.03 mg/kg,[3]; [9],182%
same,response vs control in vivo at 0.03 mg/kg,[3]; [10],48%
same,response vs control in vivo at 0.1 mg/kg,[3]; [11],211%
same,response vs control in vivo at 0.1 mg/kg,[3]; [12],40%
"CCOC(=O)C1=C(C)N=C(C)N(C(=O)OCC)C1c1ccccc1[N+](=O)[O-] (stereo not drawn) [Compound 1, 2,6-Dimethyl-5-ethoxycarbonyl-3-N-ethoxycarbonyl-4-(2'-nitrophenyl)-3,4-dihydropyrimidine]",Pharmacological data ED50,[1],0.055 μg/heart
same,coronary vascular dilative effects (in words),[1],extremely strong coronary vascular dilative effects
same,response vs control in vivo at 0.0003 mg/kg,"[2]; 0.0003 mg/kg, % of value before administration, average ± standard error",94 ± 3%
same,response vs control in vivo at 0.001 mg/kg,[2]; [4],90 ± 1%
same,response vs control in vivo at 0.003 mg/kg,[2]; [5],88 ± 1%
same,response vs control in vivo at 0.01 mg/kg,[2]; [5],79 ± 3%
same,response vs control in vivo at 0.03 mg/kg,[2]; [5],74 ± 4%
same,response vs control in vivo at 0.1 mg/kg,[2]; [6],75%
same,response vs control in vivo at 0.0003 mg/kg,"[3]; 0.0003 mg/kg, % of value before administration, average ± standard error, read-out: Vertebral artery blood flow, percentage compared with control",107 ± 4%
same,response vs control in vivo at 0.0003 mg/kg,[3]; [13],93 ± 5%
same,response vs control in vivo at 0.001 mg/kg,[3]; [7],115 ± 9%
same,response vs control in vivo at 0.001 mg/kg,[3]; [8],89 ± 4%
same,response vs control in vivo at 0.003 mg/kg,[3]; [9],136 ± 6%
same,response vs control in vivo at 0.003 mg/kg,[3]; [10],72 ± 5%
same,response vs control in vivo at 0.01 mg/kg,[3]; [9],172 ± 20%
same,response vs control in vivo at 0.01 mg/kg,[3]; [10],55 ± 3%
same,response vs control in vivo at 0.03 mg/kg,[3]; [9],184 ± 26%
same,response vs control in vivo at 0.03 mg/kg,[3]; [10],50 ± 6%
same,response vs control in vivo at 0.1 mg/kg,[3]; [11],234%
same,response vs control in vivo at 0.1 mg/kg,[3]; [12],41%
CCOC(=O)C1=C(C)N=C(C)N(C(=O)OCC)C1c1ccc(SC)cc1 (stereo not drawn) [Compound 19],Pharmacological data ED50,[1],0.58 μg/heart
COC(=O)C1=C(Cl)N=C(C)N(C(=O)OC)C1c1ccccc1[N+](=O)[O-] (stereo not drawn) [Compound 11],Pharmacological data ED50,[1],1.65 μg/heart
"CCOC(=O)C1=C(C)N=C(C)N(C(=O)OC)C1c1cccc([N+](=O)[O-])c1 (stereo not drawn) [Compound 3, 2,6-Dimethyl-5-ethoxycarbonyl-3-N-methoxycarbonyl-4-(3'-nitrophenyl)-3,4-dihydropyrimidine]",Pharmacological data ED50,[1],1.45 μg/heart
CCOC(=O)C1=C(Cl)N=C(C)N(C(=O)OCC)C1c1ccc(SC)cc1 (stereo not drawn) [Compound 18],Pharmacological data ED50,[1],0.37 μg/heart
CCOC(=O)N1C(C)=NC(Cl)=C(C(=O)OC)C1c1ccccc1[N+](=O)[O-] (stereo not drawn) [Compound 9],Pharmacological data ED50,[1],0.78 μg/heart
"COc1ccc(Cc2nccc3cc(OC)c(OC)cc23)cc1OC [Papaverine, reference compound]",response vs control in vivo at 0.1 mg/kg,[2],93 ± 1%
same,response vs control in vivo at 0.3 mg/kg,[2],83 ± 3%
same,response vs control in vivo at 1 mg/kg,[2],73 ± 4%
same,response vs control in vivo at 0.1 mg/kg,[3]; [14],123 ± 4%
same,response vs control in vivo at 0.3 mg/kg,[3]; [14],151 ± 8%
same,response vs control in vivo at 1 mg/kg,[3]; [14],184 ± 14%
same,response vs control in vivo at 0.1 mg/kg,[3]; [15],78 ± 3%
same,response vs control in vivo at 0.3 mg/kg,[3]; [15],58 ± 3%
same,response vs control in vivo at 1 mg/kg,[3]; [15],43 ± 3%
CCOC(=O)N1C(C)=NC(C)=C(C(=O)OC)C1c1ccccc1[N+](=O)[O-] (stereo not drawn) [Compound 7],Pharmacological data ED50,[1],0.40 μg/heart
CCOC(=O)C1=C(Cl)N=C(C)N(C(=O)OC)C1c1ccccc1[N+](=O)[O-] (stereo not drawn) [Compound 6],Pharmacological data ED50,[1],0.70 μg/heart
CCOC(=O)C1=C(C)N=C(C)N(C(=O)OC)C1c1ccccc1[N+](=O)[O-] (stereo not drawn) [Compound 5],Pharmacological data ED50,[1],0.066 μg/heart
same,coronary vascular dilative effects (in words),[1],extremely strong coronary vascular dilative effects
CCOC(=O)C1=C(Cl)N=C(C)N(C(=O)OC)C1c1ccc(SC)cc1 (stereo not drawn) [Compound 20],Pharmacological data ED50,[1],0.22 μg/heart
"COC(=O)C1=C(C)NC(C)=C(C(=O)OCCN(C)Cc2ccccc2)C1c1cccc([N+](=O)[O-])c1 (stereo not drawn) [Nicardipine, reference compound]",response vs control in vivo at 0.001 mg/kg,[2]; [4],90 ± 1%
same,response vs control in vivo at 0.003 mg/kg,[2]; [5],87 ± 2%
same,response vs control in vivo at 0.01 mg/kg,[2]; [5],80 ± 2%
same,response vs control in vivo at 0.001 mg/kg,[3]; [7],123 ± 7%
same,response vs control in vivo at 0.001 mg/kg,[3]; [8],79 ± 4%
same,response vs control in vivo at 0.003 mg/kg,[3]; [9],147 ± 15%
same,response vs control in vivo at 0.003 mg/kg,[3]; [10],67 ± 7%
same,response vs control in vivo at 0.01 mg/kg,[3]; [9],183 ± 13%
same,response vs control in vivo at 0.01 mg/kg,[3]; [10],49 ± 3%
CCOC(=O)C1=C(C)N=C(C)N(C(=O)OC)C1c1ccc(SC)cc1 (stereo not drawn) [Compound 21],Pharmacological data ED50,[1],1.0 μg/heart
"COC(=O)C1=C(C)NC(C)=C(C(=O)OC)C1c1ccccc1[N+](=O)[O-] [Nifedipine, reference compound]",response vs control in vivo at 0.0001 mg/kg,[2],94%
same,response vs control in vivo at 0.0003 mg/kg,[2],94%
same,response vs control in vivo at 0.001 mg/kg,[2],87%
same,response vs control in vivo at 0.0001 mg/kg,[3]; [14],114%
same,response vs control in vivo at 0.0003 mg/kg,[3]; [14],129%
same,response vs control in vivo at 0.001 mg/kg,[3]; [14],154%
same,response vs control in vivo at 0.0001 mg/kg,"[3]; 0.0001 mg/kg, % of value before administration, read-out: Vertebral artery vessel resistance, percentage compared with control",79%
same,response vs control in vivo at 0.0003 mg/kg,[3]; [13],67%
same,response vs control in vivo at 0.001 mg/kg,[3]; [8],57%
"CCOC(=O)C1=C(Cl)N=C(C)N(C(=O)OC)C1c1cccc([N+](=O)[O-])c1 (stereo not drawn) [Compound 2, 6-Chloro-5-ethoxycarbonyl-3-N-methoxycarbonyl-2-methyl-4-(3'-nitrophenyl)-3,4-dihydropyrimidine]",Pharmacological data ED50,[1],0.98 μg/heart
COC(=O)C1=C(Cl)N=C(C)N(C(=O)OC)C1c1cccc([N+](=O)[O-])c1 (stereo not drawn) [Compound 15],Pharmacological data ED50,[1],2.8 μg/heart
